Cc1nc2n(c(=O)c1CCN1CCC(c3noc4cc(F)ccc34)CC1)CCCC2
solubility (mole fraction)
Conditions | in ethanol | in methanol | in water
283.15 K | 0.00105 | 0.00239 | 4.63e-08
283.16 K | 0.00104 | 0.00239 | 4.63e-08
288.15 K | 0.00138 | 0.00294 | 6.24e-08
288.16 K | 0.00138 | 0.00294 | 6.24e-08
293.15 K | 0.0017 | 0.00363 | 8.15e-08
293.16 K | 0.0017 | 0.00363 | 8.15e-08
298.15 K | 0.00216 | 0.00443 | 1.08e-07
298.16 K | – | 0.00443 | 1.08e-07
303.15 K | 0.00272 | 0.00546 | 1.38e-07
303.16 K | – | 0.00546 | 1.38e-07
308.15 K | 0.0035 | 0.00673 | 1.83e-07
308.16 K | – | 0.00674 | 1.83e-07
313.15 K | 0.00438 | 0.0083 | 2.38e-07
313.16 K | – | 0.0083 | 2.38e-07
318.15 K | – | 0.0101 | 2.91e-07
318.16 K | – | 0.0101 | 2.91e-07
323.15 K | – | 0.0121 | 3.81e-07
323.16 K | – | 0.0121 | 3.81e-07
328.15 K | – | 0.0148 | 4.79e-07
328.16 K | – | 0.0148 | 4.79e-07

— BigSolDB 2.1
